Positions of bridges follow the written chain, without caps; N, C: chain ends.
Tested on: human proximal tubule epithelial cells (HK2)
Experiment: D-glucose-induced EMT assay, E-cadherin immunofluorescence with colorimetric image analysis
Assay type: cell-based
Settings: D-glucose 50 mM
Method: Chronic hyperglycemia is a known cause of renal fibrosis in type 2 diabetes. The assay in this example induces the transdifferentiation from the epithelial to the mesenchymal phenotype (EMT) in human proximal tubule epithelial cells (HK2) by exposing them to high levels of D-glucose (100 mM and 200 mM). […] Exposure to 100 mM D-glucose results in the loss of E-cadherine expression as evidenced by the loss of the fluorescene signal. Using this assay test compounds are evaluated based on their ability to inhibit the EMT processes in the presence of high levels of D-glucose. FIGS. 4-16 are fluorescence micrographs of HK2 cells exposed to 100 mM D-glucose and 100 uM of SEQ IS NOs 1 through 11, respectively. Note that all but SEQ ID NOs 10 and 11 were able to preserve the epithelial phenotype (i.e., inhibit the EMT).
Results are provided in the context of FIG. 1 and Table 3, below. In Table 3 below, compound response is scored using image analysis as described herein in the method of Methods and Materials, part C. A 0% response corresponds to the signal for 100 mM (or 200 mM) D-glucose (untreated) while the 100% response corresponds to the signal for media in the absence of D-glucose.
It has been shown that transdifferentiation of proximal tubular epithelial cells is a critical step in the development of renal fibrosis, and that this is associated with a loss of the epithelial phenotypic marker, E-cadherin expression. This provides the basis for the development of a cell-based screening assay in which high concentrations of D-Glucose (50-100 mM) are used to induce a loss of E-cadherin expression in human renal proximal tubular epithelial (HK-2) cells, and compounds are tested for their ability to reverse the loss E-cadherin expression.
Materials: • Human proximal tubular epithelial cells, HK-2 (ATCC #CRL-2190) • Serum-free keratinocyte medium (GIBCO #17005-042, K-SFM) • Epidermal growth factor (EGF: 5 ng/mL) • Bovine pituitary extract (BPE: 40 ug/mL) • Primary antibody, Mouse IgG anti-E-cadherin (R&D Systems # MAB1838) • BSA [Sigma #A7030] • secondary antibody, FITC-conjugated Goat anti-mouse IgG (Fab2) fragment (Sigma-Aldrich # F-2653) • Paraformaldehyde (10%)) • Triton X-100 (Sigma # T-9284) • PBS (Fisher Scientific #BP399-1) • D-PBS (Invitrogen #14190-144) • Polypropylene tips (Axygen, Inc. 0.5-10 uL, cat # T-300-L-R; 1-200 uL, Cat # T-200-L-R; 1-1000 uL, Cat # T-1000-C-L-R) • 50 mL polypropylene culture tubes (Fisher Scientific, cat #06-443-18) • 24-well Coster cell culture plates (Fisher Scientific #07-200-84)
Reagents & Test Samples: • Positive control: BMP-7, assayed at concentrations 0.1 and 1 ug/mL • Test compounds (peptides): each tested at final concentrations 100 uM and 200 uM.
Assay Procedure for Cell Culture Assay: • Run assay in 24-well culture plates. • Seed HK-2 cells at a density between 25,000 and 30,000 cells per well in lmL K-SFM medium with supplements added (growth medium) • Incubate HK-2 cells for 24 hours at 37° C., and let cells attach the plate • Next Day afternoon, change the medium with K-SFM medium with no added supplements (serum free medium) in all wells except the first two control wells. • Continue incubating HK-2 cells overnight at 37° C. • Next Day, aspirate the medium from all wells. Incubate the cells in growth medium (first two control wells) or expose them to test compounds for 2 hours at 37° C. Final concentrations of each Test compound are 100 and 200 uM. BMP-7 serves as a positive control in the assay. • After incubation, add D-glucose to all wells except first two control wells. Final concentrations of D-Glucose are 50 and 100 mM. • Incubate HK-2 cells for 60 hours at 37° C. • Aspirate the medium from all wells. To the wells, add pre-warmed growth medium or serum free medium containing D-glucose alone or D-glucose and test compound or D-glucose and BMP-7. Final concentrations of D-Glucose and Test compound are the same as above. • Continue incubating HK-2 cells for 24 hours at 37° C. […]

For “(H)-CYFDDSSNVLCKKYRS-(OH) (H-CYFDDSSNVLCKKYRS-OH; disulfide 1-11; SMILES CC(C)C[C@@H]1NC(=O)[C@H](C(C)C)NC(=O)[C@H](CC(N)=O)NC(=O)[C@H](CO)NC(=O)[C@H](CO)NC(=O)[C@H](CC(=O)O)NC(=O)[C@H](CC(=O)O)NC(=O)[C@H](Cc2ccccc2)NC(=O)[C@H](Cc2ccc(O)cc2)NC(=O)[C@@H](N)CSSC[C@@H](C(=O)N[C@@H](CCCCN)C(=O)N[C@@H](CCCCN)C(=O)N[C@@H](Cc2ccc(O)cc2)C(=O)N[C@@H](CCCNC(=N)N)C(=O)N[C@@H](CO)C(=O)O)NC1=O) [SEQ ID NO: 1]”, the “prevention of D-glucose induced loss of epithelial phenotype (E-cadherin expression)” value was “effectively prevents”.

From patent publication US20160058829A1, “ANTI-FIBROTIC PEPTIDES AND THEIR USE IN METHODS FOR TREATING DISEASES AND DISORDERS CHARACTERIZED BY FIBROSIS” (Thrasos Innovation, Inc., priority 2011, published 2016)
